Measured values: patent publication US20120034193A1, “TREATMENT OF NEUROTROPHIC FACTOR MEDIATED DISORDERS” (priority 2009, published 2012)

Columns and labels:
Acetyl CoA synthetase = assay: Enzyme activity assay; assay type: biochemical, Yeast; conditions: sarsasapogenin 100 μM
Procedure: (§1) The enzyme activity modulation was investigated using the following method: Sarsasapogenin was incubated with each enzyme plus a specific substrate for each enzyme. After the incubation period the reaction was stopped and the reduction of the specific substrate or the increase in a specific product in the absence and presence of sarsasapogenin was measured and the percent inhibition of the reaction in the presence of sarsasapogenin was calculated. The amount of enzyme used, the incubation conditions, the substrate used and the method of quantification varied depending on each specific assay.

[1] = system: phosphorylated CREB (pCREB); assay: Phosphorylated CREB in CHO cells (immunoblot); assay type: cell-based, Chinese hamster; conditions: 10 μM, 24 h, control 0.729 ± 0.112
Procedure: The CHO were incubated with DMSO (0.5%) or sarsasapogenin (10 μM) for 24 h. The cells were then washed with cold PBS, lysed in sodium dodecyl sulfate (SDS) buffer, boiled for 5 min and the protein content measured by the Bradford method. The samples were then separated on SDS polyacrylamide gels and transferred to PVDF (Bio-Rad) membrane. After exposure for 1 h in 5% skimmed milk powder, membranes were incubated overnight at 4° C. in primary antibody: mouse pCREB (Upsdate, 1:1000) and mouse β-actin (Santa Cruz, 1:1000). The membranes were then incubated in peroxidase conjugated secondary antibody (Wuhan Boster Biology Technology, China. 1:2000) for 1 h at room temperature and developed with ECL reagents (Pierce). Membranes were stripped by incubating in 2-mercaptoethanol (100 mM), SDS (2%), Tris HCl (62.5 mM) at pH 6.8 and 50° C. for 30 min Densitometric quantification of immunostaining was performed using Image J analysis system with an image analyzer (Gel Doc 2000, Bio-Rad). The relative amount of immunostaining of each band of pCREB was normalised to the β-actin band run in the same experiment and expressed as arbitrary units.

Functional assay [2] = assay type: biochemical; conditions: smilagenin 1 μM
Procedure: as §1
(§2) Using the same methods as described above, the binding of smilagenin (1 μM) to the receptors listed in Table 2 below, and the effect of smilagenin on the activity of the enzymes listed in Table 2 below, were investigated.

Aldose reductase = Aldose reductase (Rattus norvegicus, UniProt P07943); assay: Functional assay; assay type: biochemical; conditions: smilagenin 1 μM
Procedure: as §1, §2

[3] = target: Protein Serine/Threonine Kinase, AKT1 (PRKBA) (Homo sapiens, UniProt P31749); assay: Functional assay; assay type: biochemical; conditions: smilagenin 1 μM
Chain of Protein Serine/Threonine Kinase, AKT1 (PRKBA) (P31749 whole entry): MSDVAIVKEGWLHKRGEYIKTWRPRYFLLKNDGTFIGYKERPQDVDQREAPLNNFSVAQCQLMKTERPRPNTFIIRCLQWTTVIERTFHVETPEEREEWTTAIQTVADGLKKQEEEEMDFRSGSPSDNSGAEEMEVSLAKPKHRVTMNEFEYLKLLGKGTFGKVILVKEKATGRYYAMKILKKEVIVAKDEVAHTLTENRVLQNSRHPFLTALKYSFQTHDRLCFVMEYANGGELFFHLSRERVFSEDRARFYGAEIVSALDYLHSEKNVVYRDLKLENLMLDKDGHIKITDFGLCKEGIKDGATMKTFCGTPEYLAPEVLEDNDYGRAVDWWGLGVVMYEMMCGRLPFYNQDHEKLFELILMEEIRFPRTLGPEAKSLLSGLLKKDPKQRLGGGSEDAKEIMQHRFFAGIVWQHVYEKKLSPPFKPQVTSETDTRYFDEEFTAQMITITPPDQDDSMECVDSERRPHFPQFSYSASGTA
Procedure: as §1, §2

[4] = target: Protein Serine/Threonine Kinase, AKT3 (PRKBG) (Homo sapiens, UniProt Q9Y243); assay: Functional assay; assay type: biochemical; conditions: smilagenin 1 μM
Procedure: as §1, §2

[5] = target: Protein Serine/Threonine Kinase, CAMK2D (KCC2D) (Homo sapiens, UniProt Q13557); assay: Functional assay; assay type: biochemical; conditions: smilagenin 1 μM
Procedure: as §1, §2

[6] = target: Protein Serine/Threonine Kinase, MAP2K1 (MEK1 ) (Homo sapiens, UniProt Q02750); assay: Functional assay; assay type: biochemical; conditions: smilagenin 1 μM
Chain of Protein Serine/Threonine Kinase, MAP2K1 (MEK1 ) (Q02750 whole entry): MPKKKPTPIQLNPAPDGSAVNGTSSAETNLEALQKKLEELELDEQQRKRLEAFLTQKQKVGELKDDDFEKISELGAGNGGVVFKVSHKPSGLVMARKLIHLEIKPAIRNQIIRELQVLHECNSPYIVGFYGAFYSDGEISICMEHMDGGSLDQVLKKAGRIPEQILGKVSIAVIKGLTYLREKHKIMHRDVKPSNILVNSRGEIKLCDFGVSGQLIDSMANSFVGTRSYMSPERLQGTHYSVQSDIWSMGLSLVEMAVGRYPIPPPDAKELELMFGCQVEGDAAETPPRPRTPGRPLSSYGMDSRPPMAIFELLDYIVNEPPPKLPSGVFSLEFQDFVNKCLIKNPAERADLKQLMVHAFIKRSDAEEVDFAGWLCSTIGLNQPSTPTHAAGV
Procedure: as §1, §2

[7] = target: Protein Serine/Threonine Kinase, MAPK1 (ERK2) (Homo sapiens, UniProt P28482); assay: Functional assay; assay type: biochemical; conditions: smilagenin 1 μM
Chain of Protein Serine/Threonine Kinase, MAPK1 (ERK2) (P28482 whole entry): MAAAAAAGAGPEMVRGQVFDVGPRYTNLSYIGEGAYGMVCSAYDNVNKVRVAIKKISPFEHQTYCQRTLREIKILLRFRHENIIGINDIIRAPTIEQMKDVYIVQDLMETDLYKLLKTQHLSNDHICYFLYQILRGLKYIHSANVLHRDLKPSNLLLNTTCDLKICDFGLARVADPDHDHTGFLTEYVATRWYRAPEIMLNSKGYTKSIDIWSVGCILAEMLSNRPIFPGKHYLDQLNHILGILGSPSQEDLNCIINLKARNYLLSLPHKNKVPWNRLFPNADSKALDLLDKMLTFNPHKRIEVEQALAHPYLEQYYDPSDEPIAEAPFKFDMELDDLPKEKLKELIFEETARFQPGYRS
Procedure: as §1, §2

[8] = target: Protein Serine/Threonine Kinase, MAPK11 (p38β) (Homo sapiens, UniProt Q15759); assay: Functional assay; assay type: biochemical; conditions: smilagenin 1 μM
Chain of Protein Serine/Threonine Kinase, MAPK11 (p38β) (Q15759 whole entry): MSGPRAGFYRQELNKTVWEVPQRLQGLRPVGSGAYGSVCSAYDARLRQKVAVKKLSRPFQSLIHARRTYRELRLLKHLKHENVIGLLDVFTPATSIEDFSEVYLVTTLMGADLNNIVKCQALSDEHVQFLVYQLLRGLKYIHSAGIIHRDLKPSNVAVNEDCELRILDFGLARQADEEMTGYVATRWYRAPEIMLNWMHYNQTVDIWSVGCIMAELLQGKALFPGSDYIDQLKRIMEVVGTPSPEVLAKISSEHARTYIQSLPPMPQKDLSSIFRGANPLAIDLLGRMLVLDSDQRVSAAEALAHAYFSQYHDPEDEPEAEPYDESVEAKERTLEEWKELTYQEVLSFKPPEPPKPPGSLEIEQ
Procedure: as §1, §2

[9] = target: Protein Serine/Threonine Kinase, MAPK12 (p38γ) (Homo sapiens, UniProt P53778); assay: Functional assay; assay type: biochemical; conditions: smilagenin 1 μM
Chain of Protein Serine/Threonine Kinase, MAPK12 (p38γ) (P53778 whole entry): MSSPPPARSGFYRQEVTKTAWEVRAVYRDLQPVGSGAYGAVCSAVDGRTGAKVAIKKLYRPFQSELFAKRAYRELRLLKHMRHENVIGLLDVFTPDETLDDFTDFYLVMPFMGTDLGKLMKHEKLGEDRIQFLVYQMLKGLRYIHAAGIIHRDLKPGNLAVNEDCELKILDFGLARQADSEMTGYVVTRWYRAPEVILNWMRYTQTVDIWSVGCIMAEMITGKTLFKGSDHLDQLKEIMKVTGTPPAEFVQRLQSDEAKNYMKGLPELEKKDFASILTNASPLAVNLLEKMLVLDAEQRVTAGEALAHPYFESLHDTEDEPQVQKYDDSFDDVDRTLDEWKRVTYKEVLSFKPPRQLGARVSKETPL
Procedure: as §1, §2

[10] = target: Protein Serine/Threonine Kinase, MAPK13 (p38δ) (Homo sapiens, UniProt O15264); assay: Functional assay; assay type: biochemical; conditions: smilagenin 1 μM
Chain of Protein Serine/Threonine Kinase, MAPK13 (p38δ) (O15264 whole entry): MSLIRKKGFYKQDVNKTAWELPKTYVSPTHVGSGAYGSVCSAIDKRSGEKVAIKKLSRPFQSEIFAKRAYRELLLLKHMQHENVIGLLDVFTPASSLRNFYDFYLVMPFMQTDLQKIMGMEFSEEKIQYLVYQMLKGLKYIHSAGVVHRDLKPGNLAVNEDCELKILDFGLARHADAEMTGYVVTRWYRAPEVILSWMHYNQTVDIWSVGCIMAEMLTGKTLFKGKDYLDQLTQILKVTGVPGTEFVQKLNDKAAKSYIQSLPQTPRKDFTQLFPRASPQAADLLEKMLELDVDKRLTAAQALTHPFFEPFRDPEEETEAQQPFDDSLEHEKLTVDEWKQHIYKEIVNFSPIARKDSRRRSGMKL
Procedure: as §1, §2

[11] = target: Protein Serine/Threonine Kinase, MAPK3 (ERK1) (Homo sapiens, UniProt P27361); assay: Functional assay; assay type: biochemical; conditions: smilagenin 1 μM
Chain of Protein Serine/Threonine Kinase, MAPK3 (ERK1) (P27361 whole entry): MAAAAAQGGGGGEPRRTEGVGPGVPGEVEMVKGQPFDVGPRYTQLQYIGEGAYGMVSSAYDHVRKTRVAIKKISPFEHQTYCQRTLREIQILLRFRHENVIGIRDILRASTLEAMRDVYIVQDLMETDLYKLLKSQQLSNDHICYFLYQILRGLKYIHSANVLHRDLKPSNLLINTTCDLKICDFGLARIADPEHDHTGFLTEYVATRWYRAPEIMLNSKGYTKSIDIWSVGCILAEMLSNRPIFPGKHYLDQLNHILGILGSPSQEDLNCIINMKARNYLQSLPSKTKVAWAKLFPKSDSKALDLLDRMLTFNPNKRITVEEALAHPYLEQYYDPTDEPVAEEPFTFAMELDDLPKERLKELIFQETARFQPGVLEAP
Procedure: as §1, §2

[12] = target: Protein Serine/Threonine Kinase, MAPK8 (JNK1) (Homo sapiens, UniProt P45983); assay: Functional assay; assay type: biochemical; conditions: smilagenin 1 μM
Chain of Protein Serine/Threonine Kinase, MAPK8 (JNK1) (P45983 whole entry): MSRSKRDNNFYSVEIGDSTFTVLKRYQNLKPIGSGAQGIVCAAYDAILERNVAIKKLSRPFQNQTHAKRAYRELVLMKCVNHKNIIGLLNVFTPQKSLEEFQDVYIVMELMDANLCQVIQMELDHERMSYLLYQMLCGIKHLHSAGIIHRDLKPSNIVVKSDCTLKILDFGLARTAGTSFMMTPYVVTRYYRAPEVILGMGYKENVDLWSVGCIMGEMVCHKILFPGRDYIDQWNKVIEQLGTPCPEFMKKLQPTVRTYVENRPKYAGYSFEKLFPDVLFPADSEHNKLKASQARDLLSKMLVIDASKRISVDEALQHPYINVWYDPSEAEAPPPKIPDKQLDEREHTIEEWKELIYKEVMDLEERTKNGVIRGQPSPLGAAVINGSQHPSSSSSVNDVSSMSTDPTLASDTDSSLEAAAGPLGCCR
Procedure: as §1, §2

[13] = target: Protein Tyrosine Kinase, NTRK1 (trkA) (Homo sapiens, UniProt P04629); assay: Functional assay; assay type: biochemical; conditions: smilagenin 1 μM
Procedure: as §1, §2

[14] = target: Protein Tyrosine Kinase, NTRK2 (trkB) (Homo sapiens, UniProt Q16620); assay: Functional assay; assay type: biochemical; conditions: smilagenin 1 μM
Chain of Protein Tyrosine Kinase, NTRK2 (trkB) (Q16620 32-822): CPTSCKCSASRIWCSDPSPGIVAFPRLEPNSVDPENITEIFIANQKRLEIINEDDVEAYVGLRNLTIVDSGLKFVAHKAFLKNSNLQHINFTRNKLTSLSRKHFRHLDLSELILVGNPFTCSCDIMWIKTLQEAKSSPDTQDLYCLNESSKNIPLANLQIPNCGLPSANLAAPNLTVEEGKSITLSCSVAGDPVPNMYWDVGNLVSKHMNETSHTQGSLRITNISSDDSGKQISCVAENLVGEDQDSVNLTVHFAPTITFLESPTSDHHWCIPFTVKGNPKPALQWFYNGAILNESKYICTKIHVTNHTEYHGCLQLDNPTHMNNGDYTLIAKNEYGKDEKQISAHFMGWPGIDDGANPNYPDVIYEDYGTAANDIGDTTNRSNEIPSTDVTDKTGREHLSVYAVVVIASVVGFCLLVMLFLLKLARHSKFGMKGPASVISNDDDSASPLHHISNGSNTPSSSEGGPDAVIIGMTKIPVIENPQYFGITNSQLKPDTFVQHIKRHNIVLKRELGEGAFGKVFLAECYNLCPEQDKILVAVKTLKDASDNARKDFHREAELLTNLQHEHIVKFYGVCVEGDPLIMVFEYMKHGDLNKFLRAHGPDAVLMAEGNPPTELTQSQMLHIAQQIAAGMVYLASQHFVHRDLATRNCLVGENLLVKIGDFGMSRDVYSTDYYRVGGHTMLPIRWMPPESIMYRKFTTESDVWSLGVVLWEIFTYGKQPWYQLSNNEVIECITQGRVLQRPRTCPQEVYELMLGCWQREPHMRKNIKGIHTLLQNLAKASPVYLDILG
Procedure: as §1, §2

[15] = target: Protein Tyrosine Kinase, SRC (Homo sapiens, UniProt P12931); assay: Functional assay; assay type: biochemical; conditions: smilagenin 1 μM
Chain of Protein Tyrosine Kinase, SRC (P12931 whole entry): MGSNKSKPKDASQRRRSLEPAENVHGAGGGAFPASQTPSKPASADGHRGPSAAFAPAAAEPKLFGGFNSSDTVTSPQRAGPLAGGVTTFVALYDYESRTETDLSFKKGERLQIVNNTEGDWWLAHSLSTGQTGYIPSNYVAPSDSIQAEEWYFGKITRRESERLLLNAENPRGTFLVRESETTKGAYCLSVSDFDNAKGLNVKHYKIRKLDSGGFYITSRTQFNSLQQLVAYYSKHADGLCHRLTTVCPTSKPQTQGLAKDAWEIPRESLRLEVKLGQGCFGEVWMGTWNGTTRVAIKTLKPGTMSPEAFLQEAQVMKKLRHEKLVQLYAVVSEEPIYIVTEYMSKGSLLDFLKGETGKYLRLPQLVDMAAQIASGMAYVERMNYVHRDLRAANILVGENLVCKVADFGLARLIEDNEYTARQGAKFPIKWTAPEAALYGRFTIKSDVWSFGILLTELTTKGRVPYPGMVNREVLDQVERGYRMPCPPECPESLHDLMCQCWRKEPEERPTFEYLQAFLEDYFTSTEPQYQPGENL
Procedure: as §1, §2

[16] = target: UDP Glucuronosyltransferase, UGT1A1 (Homo sapiens, UniProt P22309); assay: Functional assay; assay type: biochemical; conditions: smilagenin 1 μM
Chain of UDP Glucuronosyltransferase, UGT1A1 (P22309 26-533): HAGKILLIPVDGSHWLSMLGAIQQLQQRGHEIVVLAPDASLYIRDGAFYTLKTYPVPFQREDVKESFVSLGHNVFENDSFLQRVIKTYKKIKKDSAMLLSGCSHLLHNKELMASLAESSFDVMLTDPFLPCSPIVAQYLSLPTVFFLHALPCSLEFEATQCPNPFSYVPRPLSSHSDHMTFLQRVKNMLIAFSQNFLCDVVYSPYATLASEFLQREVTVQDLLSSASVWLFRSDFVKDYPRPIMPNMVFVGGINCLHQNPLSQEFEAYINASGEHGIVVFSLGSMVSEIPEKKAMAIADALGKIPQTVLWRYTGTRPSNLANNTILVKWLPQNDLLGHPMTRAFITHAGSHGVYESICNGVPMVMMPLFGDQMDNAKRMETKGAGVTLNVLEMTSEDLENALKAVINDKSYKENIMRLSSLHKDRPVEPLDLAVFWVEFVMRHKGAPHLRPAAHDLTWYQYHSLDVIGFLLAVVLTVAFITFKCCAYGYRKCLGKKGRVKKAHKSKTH
Procedure: as §1, §2

[17] = system: Protein Serine/Threonine Kinase, PKC, Non-Selective; assay: Functional assay; assay type: biochemical, Rat; conditions: smilagenin 1 μM
Procedure: as §1, §2

Functional assay [18] = assay type: biochemical; conditions: smilagenin 1 μM; remark: listed apart in the source
Procedure: as §1, §2

GDNF = GDNF in culture medium of rat dopaminergic neurones exposed to MPP+; assay type: cell-based; conditions: 10 μM from day 6, MPP+ 2 μM day 8 for 48 h; MPP+ alone 2.7 ± 0.5
Procedure: Rat dopaminergic neurones were prepared using a slightly modified previously described method (Brouard et al., Journal of Neuroscience, 1992, 12, pp. 1409-1415). On day 6 the culture medium was replaced with fresh medium or fresh medium containing smilagenin (10 μM) or vehicle (DMSO, 0.25%). On day 8, MPP^+ (2 μM) or vehicle (saline) was added and 48 h later dopaminergic neurones were stained and the concentration of GDNF in the culture medium, neuronal damage and neurite outgrowth were assessed.

[19] = system: dopamine transporter (DAT); assay: Striatal DAT level in MPTP-lesioned mice ([I^125]-RTI binding), 60 days; assay type: in vivo, C57b1/6 RJ mice; conditions: 10 mg/kg/day oral, control 74.4, MPTP 23.4
Procedure: Seven-week old male C57b1/6 RJ mice (C57 mice) received daily injections 1-methyl-4-phenyl-1,2,3,6-tetrahydropyridine (MPTP, 25 mg/kg/day, i.p., for 5 consecutive days) and oral administration of smilagenin (10 mg/kg/day) or vehicle (hydroxylpropylmethylcellulose, HPMC 0.5% w/v containing tween-80 0.2% v/v) for 60 days after which time their brains were removed for quantification of striatal levels of GDNF and BDNF using an ELISA and of dopamine transporter (DAT) levels using [I^125]-RTI binding. DAT is a marker for neuronal damage to dopaminergic neurones.

In the case of `C[C@H]1CC[C@@]2(OC1)O[C@H]1C[C@H]3[C@@H]4CC[C@@H]5C[C@@H](O)CC[C@]5(C)[C@H]4CC[C@]3(C)[C@H]1[C@@H]2C` [Sarsasapogenin, sarsasapogenin], the “Effect (%)” value (Acetyl CoA synthetase) is reported as “NS (NS = No significant response. Significance was taken as ≧30% stimulation or inhibition)” and the “Phosphorylated CREB (Arbitary units)” value [1] is reported as 1.342 ± 0.084^++ Arbitary units.

In the case of `C[C@@H]1CC[C@@]2(OC1)O[C@H]1C[C@H]3[C@@H]4CC[C@@H]5C[C@@H](O)CC[C@]5(C)[C@H]4CC[C@]3(C)[C@H]1[C@@H]2C` [Smilagenin, smilagenin], the “Effect (%)” value (Functional assay [2]) is reported as “NS (NS = No significant response. Significance was taken as ≧30% stimulation or inhibition)”, the “Effect (%)” value (Aldose reductase) is reported as “NS (NS = No significant response. Significance was taken as ≧30% stimulation or inhibition)” and the “Effect (%)” value [3] is reported as “NS (NS = No significant response. Significance was taken as ≧30% stimulation or inhibition)”. For the same molecule, the “Effect (%)” value [4] was “NS (NS = No significant response. Significance was taken as ≧30% stimulation or inhibition)”, the “Effect (%)” value [5] was “NS (NS = No significant response. Significance was taken as ≧30% stimulation or inhibition)” and the “Effect (%)” value [6] was “NS (NS = No significant response. Significance was taken as ≧30% stimulation or inhibition)”. For the same molecule, the “Effect (%)” value [7] was “NS (NS = No significant response. Significance was taken as ≧30% stimulation or inhibition)”, the “Effect (%)” value [8] was “NS (NS = No significant response. Significance was taken as ≧30% stimulation or inhibition)” and the “Effect (%)” value [9] was “NS (NS = No significant response. Significance was taken as ≧30% stimulation or inhibition)”. For the same molecule, the “Effect (%)” value [10] was “NS (NS = No significant response. Significance was taken as ≧30% stimulation or inhibition)”, the “Effect (%)” value [11] was “NS (NS = No significant response. Significance was taken as ≧30% stimulation or inhibition)” and the “Effect (%)” value [12] was “NS (NS = No significant response. Significance was taken as ≧30% stimulation or inhibition)”. For the same molecule, the “Effect (%)” value [13] was “NS (NS = No significant response. Significance was taken as ≧30% stimulation or inhibition)”, the “Effect (%)” value [14] was “NS (NS = No significant response. Significance was taken as ≧30% stimulation or inhibition)” and the “Effect (%)” value [15] was “NS (NS = No significant response. Significance was taken as ≧30% stimulation or inhibition)”. The “Effect (%)” value [16] was “NS (NS = No significant response. Significance was taken as ≧30% stimulation or inhibition)”, the “Effect (%)” value [17] was “NS (NS = No significant response. Significance was taken as ≧30% stimulation or inhibition)” and the “Effect (%)” value (Functional assay [18]) was “NS (NS = No significant response. Significance was taken as ≧30% stimulation or inhibition)”. For the same molecule, the “GDNF concentration” value (GDNF) was 6.6 ± 0.7 pg/mL and the “DAT level ([I^125]-RTI binding in the striatum; nCi/g protein)” value [19] was 69.7 ± 8.8 nCi/g protein.
